Literature values as cited in US20050039221A1, “Phenotypic effects of ubiquinone deficiencies and methods of screening thereof” (priority 2001, published 2005).

Tests used:
[1] = system: complex II; details: synthetic DMQ2
[2] = system: complex I; details: synthetic DMQ2
[3] = rodents

Row | Uptake of dietary UQ, share of the initially ingested ubiquinone [3] | Compound | Function as co-factor for electron transport from complex II [1] | Function as co-factor for electron transport from complex I [2]
1 | – | COC1=CC(=O)C(C)=C(C/C=C(\C)CCC=C(C)C)C1=O [DMQ2] | more poorly | can function as a co-factor
2 | 2-3% | COC1=C(OC)C(=O)C(C/C=C(\C)CC/C=C(\C)CC/C=C(\C)CC/C=C(\C)CC/C=C(\C)CC/C=C(\C)CC/C=C(\C)CC/C=C(\C)CC/C=C(\C)CCC=C(C)C)=C(C)C1=O [UQ, Ubiquinone] | – | –
